Experimental data: ChEMBL document CHEMBL5620412, “Discovery of benzofuran-2-carboxylic acid derivatives as lymphoid tyrosine phosphatase (LYP) inhibitors for cancer immunotherapy” (Eur J Med Chem, 2023)

What was measured:
[1] = target: T1, Protein phosphatase Slingshot homolog 2 (Homo sapiens, UniProt Q76I76); assay: Inhibition of N-terminal His-tagged SSH2 catalytic domain (1 to 294 residues) (unknown origin) expressed in Escherichia coli BL21 (DE3) cells
T1 sequence (Q76I76 whole entry): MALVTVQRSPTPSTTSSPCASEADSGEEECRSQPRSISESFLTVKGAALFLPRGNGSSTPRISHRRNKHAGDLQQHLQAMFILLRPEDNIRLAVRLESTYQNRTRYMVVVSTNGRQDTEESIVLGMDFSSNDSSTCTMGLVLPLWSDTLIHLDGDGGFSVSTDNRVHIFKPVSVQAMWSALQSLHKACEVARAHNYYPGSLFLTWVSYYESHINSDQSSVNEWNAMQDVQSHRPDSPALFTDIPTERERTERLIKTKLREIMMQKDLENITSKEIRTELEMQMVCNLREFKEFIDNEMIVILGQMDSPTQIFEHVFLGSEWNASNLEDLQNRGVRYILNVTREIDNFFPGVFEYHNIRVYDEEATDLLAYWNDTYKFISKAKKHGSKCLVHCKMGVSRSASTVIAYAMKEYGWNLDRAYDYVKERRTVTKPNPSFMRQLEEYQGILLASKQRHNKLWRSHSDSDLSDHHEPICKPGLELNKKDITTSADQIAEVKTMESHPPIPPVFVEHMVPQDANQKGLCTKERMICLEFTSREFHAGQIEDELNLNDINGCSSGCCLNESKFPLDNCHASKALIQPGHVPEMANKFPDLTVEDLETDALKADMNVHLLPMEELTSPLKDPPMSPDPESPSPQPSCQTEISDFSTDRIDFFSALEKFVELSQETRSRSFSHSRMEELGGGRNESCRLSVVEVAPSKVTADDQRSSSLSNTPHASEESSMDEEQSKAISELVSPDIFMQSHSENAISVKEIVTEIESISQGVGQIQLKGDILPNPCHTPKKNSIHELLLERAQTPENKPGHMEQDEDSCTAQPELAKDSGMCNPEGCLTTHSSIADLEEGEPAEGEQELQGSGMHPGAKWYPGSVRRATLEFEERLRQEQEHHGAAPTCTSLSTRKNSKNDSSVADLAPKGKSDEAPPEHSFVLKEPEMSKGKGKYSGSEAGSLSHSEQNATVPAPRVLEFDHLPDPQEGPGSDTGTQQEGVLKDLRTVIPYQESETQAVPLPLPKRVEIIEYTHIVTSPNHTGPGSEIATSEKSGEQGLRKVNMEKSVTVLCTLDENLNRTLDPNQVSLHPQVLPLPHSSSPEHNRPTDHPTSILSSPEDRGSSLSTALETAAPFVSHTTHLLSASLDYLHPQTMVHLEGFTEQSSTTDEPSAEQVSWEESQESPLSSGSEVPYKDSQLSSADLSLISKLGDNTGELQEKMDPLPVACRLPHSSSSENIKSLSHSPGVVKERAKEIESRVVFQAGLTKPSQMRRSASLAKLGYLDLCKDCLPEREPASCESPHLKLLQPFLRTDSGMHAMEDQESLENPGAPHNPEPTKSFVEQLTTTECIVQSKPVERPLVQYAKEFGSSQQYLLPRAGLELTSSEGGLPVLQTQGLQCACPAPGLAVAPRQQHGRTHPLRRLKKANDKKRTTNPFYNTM

[2] = target: T2, Tyrosine-protein phosphatase non-receptor type 12 (Homo sapiens, UniProt Q05209); assay: Inhibition of N-terminal His-tagged PTPN12 catalytic domain (1 to 294 residues) (unknown origin) expressed in Escherichia coli BL21 (DE3) cells
T2 sequence (Q05209 whole entry): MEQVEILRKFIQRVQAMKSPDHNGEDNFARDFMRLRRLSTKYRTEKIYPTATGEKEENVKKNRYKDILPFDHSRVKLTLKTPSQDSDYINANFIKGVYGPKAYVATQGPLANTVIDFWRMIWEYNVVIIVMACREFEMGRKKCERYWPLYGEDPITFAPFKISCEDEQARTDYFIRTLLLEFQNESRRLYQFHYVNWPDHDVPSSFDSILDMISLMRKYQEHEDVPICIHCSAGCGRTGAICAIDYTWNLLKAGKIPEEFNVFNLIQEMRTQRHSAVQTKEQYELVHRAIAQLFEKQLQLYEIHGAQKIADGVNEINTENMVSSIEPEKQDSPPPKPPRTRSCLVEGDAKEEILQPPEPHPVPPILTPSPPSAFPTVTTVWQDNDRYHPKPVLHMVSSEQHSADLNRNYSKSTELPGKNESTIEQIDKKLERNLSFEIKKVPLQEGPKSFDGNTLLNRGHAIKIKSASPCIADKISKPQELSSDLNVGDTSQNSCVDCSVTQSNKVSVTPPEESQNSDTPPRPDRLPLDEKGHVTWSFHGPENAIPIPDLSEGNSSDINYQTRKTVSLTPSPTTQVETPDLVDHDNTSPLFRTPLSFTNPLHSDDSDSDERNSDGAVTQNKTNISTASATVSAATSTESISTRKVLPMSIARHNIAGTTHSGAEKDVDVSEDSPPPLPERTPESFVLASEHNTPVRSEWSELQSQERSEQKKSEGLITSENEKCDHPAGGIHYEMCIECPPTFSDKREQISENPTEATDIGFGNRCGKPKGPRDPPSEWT

[3] = target: T3, Tyrosine-protein phosphatase non-receptor type 1 (Homo sapiens, UniProt P18031); assay: Inhibition of N-terminal His-tagged PTP1B catalytic domain (1 to 294 residues) (unknown origin) expressed in Escherichia coli BL21 (DE3) cells
T3 sequence (P18031 whole entry): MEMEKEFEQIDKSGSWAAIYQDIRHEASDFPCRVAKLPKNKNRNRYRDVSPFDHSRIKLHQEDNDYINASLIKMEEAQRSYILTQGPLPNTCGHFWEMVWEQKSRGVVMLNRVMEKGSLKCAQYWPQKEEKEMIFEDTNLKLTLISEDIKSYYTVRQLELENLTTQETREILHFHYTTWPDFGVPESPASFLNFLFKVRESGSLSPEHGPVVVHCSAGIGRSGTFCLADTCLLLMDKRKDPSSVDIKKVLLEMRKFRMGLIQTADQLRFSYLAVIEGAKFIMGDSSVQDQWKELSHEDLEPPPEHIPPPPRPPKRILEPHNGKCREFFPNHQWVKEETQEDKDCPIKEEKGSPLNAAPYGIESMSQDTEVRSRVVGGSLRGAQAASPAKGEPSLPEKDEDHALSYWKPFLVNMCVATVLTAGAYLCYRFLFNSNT

[4] = Selectivity ratio of IC50 for inhibition of N-terminal His-tagged PTP1B catalytic domain (1 to 294 residues) (unknown origin) expressed in Escherichia coli BL21 (DE3) cells to IC50 for inhibition of N-terminal His-tagged LYP catalytic domain (1 to 294 residues) (unknown origin) expressed in Escherichia coli BL21 (DE3) cells using pNPP as substrate

SMILES	IC50 [1] [µM]	IC50 [2] [µM]	IC50 [3] [µM]	Ratio IC50 [4]
COc1ccc(-c2ccc(CN(c3ccc4oc(C(=O)O)cc4c3)S(=O)(=O)c3ccc(Cl)c([N+](=O)[O-])c3)cc2)cc1	> 20	12.3	13.7	
O=C(O)c1cc2cc(N(Cc3ccc(OCc4ccccc4)cc3)S(=O)(=O)c3ccc(-c4ccccc4)cc3)ccc2o1	> 20	11.7	10.7	> 3.5
O=C(O)c1cc2cc(N(Cc3cccc(-c4ccccc4)c3)S(=O)(=O)c3ccc(-c4ccccc4)cc3)ccc2o1	> 20	6.4	5.9	1.8
CC(=O)C1=C(C)N=c2s/c(=C/c3ccc(OCc4ccc(C(=O)O)cc4)cc3)c(=O)n2C1c1ccc(N(C)C)cc1 (centres undefined)	> 20	8.2	7.1	1.2
O=C(O)c1cc2cc(N(Cc3ccc(-c4ccccc4)cc3)S(=O)(=O)c3ccc(-c4cccc(O)c4)cc3)ccc2o1	> 20	10.6	6.4	1.8
